Read-outs that look alike come from different tables or passages of the source. *1 amine or outer side, *2 acyl side, *3 side chain or, on linkers, in order; H or OH if unused. Where a SMILES comes first, the peptide text is derived from it. Bridges are numbered along the chain shown (N, C = ends). [ ]: non-standard residue; d: D form. The star is where a group is joined. hPhe(3-Cl-4-CF3) = N[C@@H](CCc1ccc(C(F)(F)F)c(Cl)c1)C(=O)O; X30 = CCN([C@H](C(=O)[*:2])C1CCCC1)[*:1]; NMeGly(cPent) = CN[C@H](C(=O)O)C1CCCC1; NMeD = CN[C@@H](CC(=O)O)C(=O)O; NMeL = CN[C@@H](CC(C)C)C(=O)O; Morpholide = C1CN(*)CCO1; NMeA = CN[C@@H](C)C(=O)O; Ac5c = NC1(C(=O)O)CCCC1; Aze = O=C(O)[C@@H]1CCN1; Sar = CNCC(=O)O
How the values were obtained:
[1] = target: GDP-bound NRAS wild-type protein (Homo sapiens, UniProt P01111); test: Binding to NRAS by surface plasmon resonance (SPR), KD and KD ratio to KRAS
Outline: (§1)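 Measured at 30°C: SPR with GDP-loaded, E. coli-expressed biotin-Avi RAS captured (~100–300 RU), ascending 75 s compound injections, HBS pH 7.4 with GDP, MgCl2, 4% DMSO. KD from 1:1 fit.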

HRAS wild-type protein = HRAS wild-type protein (Homo sapiens, UniProt P01112); test: Binding to HRAS by surface plasmon resonance (SPR), KD and KD ratio to KRAS
Outline: as §1

[2] = test system: human lung cancer strain NCI-H441; assay type: cell-based
Outline: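 Signal came from […] measured per well once the reagent was added. Beforehand, cells were cultured at 37°C and 5% carbon dioxide on a compound series serially diluted in dimethyl sulfoxide.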

[3] = ratio of KD value for GDP-bound NRAS wild-type protein to KD value for KRAS (SPR)
[4] = ratio of KD value for HRAS wild-type protein to KD value for KRAS (SPR)
[5] = ratio of KD for GDP-bound NRAS wild-type protein to KD for KRAS
[6] = ratio of KD for HRAS wild-type protein to KD for KRAS
[7] = ratio of the KD value with respect to GDP-bound NRAS wild-type protein to the KD value with respect to KRAS
[8] = ratio of the KD value with respect to HRAS wild-type protein to the KD value with respect to KRAS

Sequence of GDP-bound NRAS wild-type protein (P01111 whole entry): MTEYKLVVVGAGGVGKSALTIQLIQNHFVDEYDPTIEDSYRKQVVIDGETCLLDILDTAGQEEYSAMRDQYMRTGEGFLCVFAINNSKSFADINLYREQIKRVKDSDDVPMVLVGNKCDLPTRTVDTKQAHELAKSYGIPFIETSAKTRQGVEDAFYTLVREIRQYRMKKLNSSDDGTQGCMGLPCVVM
Sequence of HRAS wild-type protein (P01112 whole entry): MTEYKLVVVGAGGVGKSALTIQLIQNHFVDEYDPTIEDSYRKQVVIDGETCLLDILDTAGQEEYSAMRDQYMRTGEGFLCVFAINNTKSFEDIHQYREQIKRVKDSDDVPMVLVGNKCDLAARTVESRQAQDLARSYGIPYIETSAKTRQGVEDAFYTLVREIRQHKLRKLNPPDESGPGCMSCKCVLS

| IC50 [2] | Structure (SMILES) | NRAS /KRAS [1, 3] | HRAS /KRAS (HRAS wild-type protein; [4]) | NRAS /KRAS [1, 5] | HRAS /KRAS (HRAS wild-type protein; [6]) | NRAS /KRAS [1, 7] | HRAS /KRAS (HRAS wild-type protein; [8]) | IC50 ([2]; NCI-H441 cells, 4 days, CellTiter-Glo, read-out: NCl-H441 IC50) |
| --- | --- | --- | --- | --- | --- | --- | --- | --- |
| 3.1 nM | CCCN1C(=O)CN(C)C(=O)CN(C)C(=O)[C@H]([C@@H](C)CC)NC(=O)[C@@H]2CCCCCCOc3ccc(cc3)C[C@H]1C(=O)N(C)CC(=O)N[C@@H](CCc1cc(F)c(C(F)(F)F)c(F)c1)C(=O)N1C[C@H](OCC)C[C@H]1C(=O)NC1(CCCC1)C(=O)N(C)[C@@H](C1CCCC1)C(=O)N(C)[C@H](C(=O)N(C)C)CC(=O)N2C [PP0896] |  |  | C (A compound having a KD ratio of 0.1 or more and less than 3 is denoted as C) | C (A compound having a KD ratio of 0.1 or more and less than 3 is denoted as C) |  |  |  |
| 8.2 nM | CCC[C@H]1C(=O)N[C@@H]([C@@H](C)CC)C(=O)N(C)CC(=O)N(C)[C@H]2C/C=C\CCN(C2=O)[C@@H](Cc2ccc(C)cc2)C(=O)N(C)CC(=O)N[C@@H](CCc2ccc(C(F)(F)F)c(Cl)c2)C(=O)N2C[C@H](OCC)C[C@H]2C(=O)NC2(CC(C)(C)C2)C(=O)N(C)[C@@H](C(CC)CC)C(=O)N(C)[C@H](C(=O)N(C)C)CC(=O)N1C [PP2146] |  |  |  |  | A (a compound having 10 or more and less than 20 is denoted as A) | A (a compound having 10 or more and less than 20 is denoted as A) |  |
| 3.6 nM | CCCN(C)C(=O)[C@@H]1CC(=O)N(C)[C@@H](C)C(=O)N[C@@H]([C@@H](C)CC)C(=O)N(C)CC(=O)N(C)[C@H]2C/C=C\CCN(C2=O)[C@@H](Cc2ccc(C(F)(F)F)cc2)C(=O)N(C)CC(=O)N[C@@H](CCc2cc(F)c(C(F)(F)F)c(F)c2)C(=O)N2C[C@H](F)C[C@H]2C(=O)NC2(CC(C)(C)C2)C(=O)N(C)[C@@H](C2CCCC2)C(=O)N1C [PP1663] | AA (a compound having 20 or more is denoted as AA) | A (a compound having 10 or more and less than 20 is denoted as A) |  |  |  |  |  |
| 12.5 nM | CCO[C@@H]1C[C@H]2C(=O)NC3(CC(C)(C)C3)C(=O)N(C)[C@@H](C(CC)CC)C(=O)N(C)[C@H](C(=O)N(C)C)CC(=O)N(C)[C@@H](CC(C)C)C(=O)N[C@@H]([C@@H](C)CC)C(=O)N(C)CC(=O)N(C)[C@H]3C/C=C\CCN(C3=O)[C@@H](Cc3ccc(C(F)(F)F)cc3)C(=O)N(C)CC(=O)N[C@@H](CCc3cc(F)c(C(F)(F)F)c(F)c3)C(=O)N2C1 [PP2127] |  |  |  |  | AA (a compound having 20 or more is denoted as AA) | A (a compound having 10 or more and less than 20 is denoted as A) |  |
| 39.6 nM | CC[C@H](C)[C@@H]1NC(=O)[C@H](CC)N(C)C(=O)C[C@@H](C(=O)N(C)C)N(C)C(=O)[C@H](C2CCCC2)N(C)C(=O)C2(CCC2)NC(=O)[C@@H]2C[C@H](N3CCC(F)(F)CC3)CN2C(=O)[C@H](CCc2cc(F)c(C(F)(F)F)c(F)c2)NC(=O)CN(C)C(=O)[C@H](Cc2ccc(C(F)(F)F)cc2)N2CCCC[C@@H](C2=O)N(C)C(=O)CN(C)C1=O [PP0732] |  |  |  |  | C (A compound having a KD ratio of 0.1 or more and less than 3 is denoted as C) | B (a compound having 3 or more and less than 10 is denoted as B) |  |
| 14.9 nM | CC[C@H](C)[C@@H]1NC(=O)[C@H](C2CC2)N(C)C(=O)C[C@@H](C(=O)N(C)CC)N(C)C(=O)[C@H](C2CCCC2)N(C)C(=O)C2(CC(C)(C)C2)NC(=O)[C@@H]2C[C@H](C)CN2C(=O)[C@H](CCc2ccc(C(F)(F)F)c(OC)c2)NC(=O)CN(C)C(=O)[C@H](Cc2ccc(C(F)(F)F)cc2)N2CC/C=C\C[C@@H](C2=O)N(C)C(=O)CN(C)C1=O [PP2007] |  |  |  |  | AA (a compound having 20 or more is denoted as AA) | B (a compound having 3 or more and less than 10 is denoted as B) |  |

Continued, compound first:

| Structure (SMILES) | IC50 [2] | NRAS /KRAS [1, 3] | HRAS /KRAS (HRAS wild-type protein; [4]) | NRAS /KRAS [1, 5] | HRAS /KRAS (HRAS wild-type protein; [6]) | NRAS /KRAS [1, 7] | HRAS /KRAS (HRAS wild-type protein; [8]) | IC50 ([2]; NCI-H441 cells, 4 days, CellTiter-Glo, read-out: NCl-H441 IC50) |
| --- | --- | --- | --- | --- | --- | --- | --- | --- |
| CCCN(C)C(=O)[C@@H]1CC(=O)N(C)[C@@H](COC)C(=O)N[C@@H]([C@@H](C)CC)C(=O)N(C)CC(=O)N(C)[C@H]2C/C=C\CCN(C2=O)[C@@H](Cc2ccc(C(F)(F)F)cc2)C(=O)N(C)CC(=O)N[C@@H](CCc2cc(F)c(Cl)c(F)c2)C(=O)N2C[C@H](OCC)C[C@H]2C(=O)NC2(CC(C)(C)C2)C(=O)N(C)[C@@H](C2CCCC2)C(=O)N1C [PP1763] | 13.3 nM | A (a compound having 10 or more and less than 20 is denoted as A) | A (a compound having 10 or more and less than 20 is denoted as A) |  |  |  |  |  |
| CC[C@H](C)[C@@H]1NC(=O)[C@H](CC(C)C)N(C)C(=O)C[C@@H](C(=O)N2CCOCC2)N(C)C(=O)[C@H](C2CCCC2)N(C)C(=O)C2(CCCC2)NC(=O)[C@@H]2CCCN2C(=O)[C@H](CCc2ccc(C(F)(F)F)c(Cl)c2)NC(=O)CN(C)C(=O)[C@H](C2CCCC2)N(CC)C(=O)[C@@H]2CCN2C(=O)[C@H](C)N(C)C1=O [PP0003] ([NMeL]I[NMeA][Aze][X30][Sar][hPhe(3-Cl-4-CF3)]P[Ac5c][NMeGly(cPent)][NMeD]-Morpholide; lactam N-11) | 41.4 nM |  |  | C (A compound having a KD ratio of 0.1 or more and less than 3 is denoted as C) | C (A compound having a KD ratio of 0.1 or more and less than 3 is denoted as C) |  |  |  |
| CC[C@H](C)[C@@H]1NC(=O)[C@H](CC(C)C)N(C)C(=O)C[C@@H](C(=O)N2CCOCC2)N(C)C(=O)[C@H](C2CCCC2)N(C)C(=O)C2(CC(F)(F)C2)NC(=O)[C@@H]2CCCN2C(=O)[C@H](CCc2cc(F)c(C(F)(F)F)c(F)c2)NC(=O)CN(C)C(=O)[C@H](Cc2ccc(C(F)(F)F)cc2)N2CCCC[C@@H](C2=O)N(C)C(=O)CN(C)C1=O [PP0562] | 4.4 nM |  |  |  |  | B (a compound having 3 or more and less than 10 is denoted as B) | B (a compound having 3 or more and less than 10 is denoted as B) |  |
| CCO[C@H]1CCN2C(=O)[C@H](CCc3cc(F)c(C(F)(F)F)c(F)c3)NC(=O)CN(C)C(=O)[C@H](Cc3ccc(C(F)(F)F)cc3)N3CCCCC[C@@H](C3=O)N(C)C(=O)CN(C)C(=O)[C@H]([C@@H](C)CC)NC(=O)[C@H](CC(C)C)N(C)C(=O)C[C@@H](C(=O)N3CCOCC3)N(C)C(=O)[C@H](C3CCCC3)N(C)C(=O)C3(CCC3)NC(=O)[C@H]12 [PP1068] | 121 nM |  |  | A (a compound having 10 or more and less than 20 is denoted as A) | B (a compound having 3 or more and less than 10 is denoted as B) |  |  |  |
| CCO[C@@H]1C[C@H]2C(=O)NC3(CC(C)(C)C3)C(=O)N(C)[C@@H](C3CCCC3)C(=O)N(C)[C@H](C(=O)N(C)CC)CC(=O)N(C)[C@@H](COC)C(=O)N[C@@H]([C@@H](C)CC)C(=O)N(C)CC(=O)N(C)[C@H]3C/C=C\CCN(C3=O)[C@@H](Cc3ccc(C(F)(F)F)cc3)C(=O)N(C)CC(=O)N[C@@H](CCc3ccc(C(F)(F)F)c(Cl)c3)C(=O)N2C1 [PP2836] | 5.1 nM |  |  | A (a compound having 10 or more and less than 20 is denoted as A) | A (a compound having 10 or more and less than 20 is denoted as A) |  |  |  |
| CCOC[C@H]1C(=O)N[C@@H]([C@@H](C)CC)C(=O)N(C)CC(=O)N(C)[C@H]2C/C=C\CCN(C2=O)[C@@H](Cc2ccc(C(C)=O)cc2)C(=O)N(C)CC(=O)N[C@@H](CCc2ccc(C(F)(F)F)c(OC)c2)C(=O)N2C[C@@H](C)C[C@H]2C(=O)NC2(CC(C)(C)C2)C(=O)N(C)[C@@H](C2CCCC2)C(=O)N(C)[C@H](C(=O)N(C)CC)CC(=O)N1C [PP2703] |  |  |  | AA (a compound having 20 or more is denoted as AA) | A (a compound having 10 or more and less than 20 is denoted as A) |  |  | 80.5 nM |

Source: patent EP4603105A1, “PHARMACEUTICAL COMPOSITION CONTAINING CYCLIC COMPOUND HAVING SELECTIVE KRAS INHIBITORY EFFECT AGAINST HRAS AND NRAS” (CHUGAI SEIYAKU KABUSHIKI KAISHA, priority 2022, dated 2024)
